Experimental data published in ChEMBL document CHEMBL5620390, “A novel multifunctional mitochondrion-targeting NIR fluorophore probe inhibits tumour proliferation and metastasis through the PPARγ/ROS/β-catenin pathway” (Eur J Med Chem, 2023).
Active and inactive are the calls of the source. The rule behind the calls is not given here.

Legend:
[1] = system: B16-F10; assay: Induction of cell cycle arrest in mouse B16-F10 cells assessed as P27 protein accumulation at 0.31 to 1.25 uM after 24 hrs by Western blotting analysis; assay type: functional, cell-based; settings: dose 0.31-1.25 µM
[2] = system: B16-F10; assay: Inhibition of Wnt/beta-catenin signaling in mouse B16-F10 cells assessed as reduction in beta-catenin expression at 1.25 uM preincubated with rosiglitazone for 24 hrs followed by compound addition and measured after 24 hrs in presence of H2O2; assay type: cell-based
[3] = system: B16-F10; assay: Antitumor activity against mouse B16-F10 cells inoculated in mouse assessed as reduction in lung melanoma nodules at 2 mg/kg, ip administered every other day and measured on day 18 by immunohistochemistry analysis; assay type: functional, organism-based; settings: time 18.0 day
[4] = Toxicity in C57BL/6J mouse inoculated with mouse B16-F10 cells assessed as effect on spleen morphology at 2 mg/kg, ip administered every other day for 22 days by H and E staining based assay; assay type: organism-based; settings: in vivo, 528 h, time 22 day
[5] = system: B16-F10; assay: Inhibition of Wnt/beta-catenin signaling in mouse B16-F10 cells assessed as reduction in beta-catenin expression at 1.25 uM incubated for 24 hrs; assay type: cell-based
[6] = system: A-375; assay: Inhibition of tumor metastasis in human A-375 cells assessed as reduction in wound healing after 24 hrs; assay type: functional, cell-based; settings: dose 0.08-1.25 µM
[7] = system: B16-F10; assay: Antiproliferative activity against mouse B16-F10 cells assessed as inhibition of cell growth after 24 to 72 hrs by MTT assay; assay type: functional, cell-based
[8] = system: A-375; assay: Induction of cell cycle arrest in human A-375 cells assessed as accumulation of cells at G0/G1 phase incubated for 24 hrs by PI staining based flow cytometry analysis (reference value: 12.05%); assay type: functional
[9] = system: A-375; assay: Induction of cell cycle arrest in human A-375 cells assessed as reduction in Cdk4 protein level at 0.31 to 1.25 uM after 24 hrs by Western blotting analysis; assay type: functional, cell-based; settings: dose 0.31-1.25 µM
[10] = system: B16-F10; assay: Induction of mitochondrial damage in mouse B16-F10 cells assessed as mitochondrial swelling at 2.5 uM incubated for 24 hrs by TEM analysis; assay type: functional, cell-based
[11] = system: B16-F10; assay: Induction of mitochondrial damage in mouse B16-F10 cells assessed as increase in ROS production at 2.5 uM after 5 to 60 mins by DCFH-DA staining based flow cytometry analysis; assay type: functional, cell-based; settings: time 5-60 min
[12] = system: A-375; assay: Antitumor activity against human GFP-stained A-375 cells inoculated in zebrafish assessed as reduction in tumor growth by measuring tumor fluorescence intensity; assay type: functional, cell-based
[13] = system: B16-F10; assay: Inhibition of cell migration in mouse B16-F10 cells after 24 hrs by transwell assay; assay type: functional, cell-based; settings: dose 0.31-1.25 µM
[14] = system: A-375; assay: Induction of ROS generation in human A-375 cells assessed as reduction in SOD2 expression level at 0.31 to 1.25 uM incubated for 24 hrs; assay type: functional, cell-based; settings: dose 0.31-1.25 µM
[15] = system: A-375; assay: Induction of cell cycle arrest in human A-375 cells assessed as reduction in cyclin E1 protein level at 0.31 to 1.25 uM after 24 hrs by Western blotting analysis; assay type: functional, cell-based; settings: dose 0.31-1.25 µM
[16] = Toxicity in C57BL/6J mouse inoculated with mouse B16-F10 cells assessed as effect on heart morphology at 2 mg/kg, ip administered every other day for 22 days by H and E staining based assay; assay type: organism-based; settings: in vivo, 528 h, time 22 day
[17] = Toxicity in C57BL/6J mouse inoculated with mouse B16-F10 cells assessed as reduction in body weight at 2 mg/kg, ip administered every other day and measured after 14 days; assay type: organism-based; design: scale not given: the % may be the effect or the level left; settings: in vivo, 336 h, time 14 day
[18] = system: MDA-MB-231; assay: Antiproliferative activity against human MDA-MB-231 cells assessed as inhibition of cell growth at 0.31 uM after 72 hrs by MTT assay; assay type: functional; design: scale not given: the % may be the effect or the level left
[19] = system: A-375; assay: Inhibition of cell migration in human A-375 cells after 24 hrs by transwell assay; assay type: functional, cell-based; settings: dose 0.31-1.25 µM
[20] = system: A-375; assay: Inhibition of Wnt/beta-catenin signaling in human A-375 cells assessed as reduction in TCF4 expression at 1.25 uM incubated for 24 hrs; assay type: cell-based
[21] = Cytotoxicity against human A-375 cells assessed as cell viability at 40 uM incubated for 24 hrs by MTT assay; assay type: toxicity, cell-based; settings: read-out: Activity
[22] = system: A-375; assay: Induction of cell cycle arrest in human A-375 cells assessed as P21 protein accumulation at 0.31 to 1.25 uM after 24 hrs by Western blotting analysis; assay type: functional, cell-based; settings: dose 0.31-1.25 µM
[23] = system: B16-F10; assay: Inhibition of Wnt/beta-catenin signaling in mouse B16-F10 cells assessed as reduction in TCF4 expression at 1.25 uM incubated for 24 hrs; assay type: cell-based
[24] = Drug uptake in human A549 cells assessed as fluorescence intensity at 2.5 uM incubated for 1 hr by confocal laser scanning microscopic analysis; assay type: ADME, cell-based; settings: a549, 1 h
[25] = system: B16-F10; assay: Antitumor activity against mouse B16-F10 cells inoculated in mouse assessed as reduction in tumor invasion at 2 mg/kg, ip administered every other day and measured on day 18 by H and E staining based assay; assay type: functional, organism-based; settings: time 18.0 day
[26] = system: A-375; assay: Antiproliferative activity against human A-375 cells assessed as inhibition of cell growth at 0.31 uM after 72 hrs by MTT assay; assay type: functional; design: scale not given: the % may be the effect or the level left
[27] = system: A-375; assay: Inhibition of cell metastasis in human A-375 cells assessed as reduction in MMP9 protein level at 0.31 to 1.25 uM after 24 hrs by Western blotting analysis; assay type: functional, cell-based; settings: dose 0.31-1.25 µM
[28] = Toxicity in C57BL/6J mouse inoculated with mouse B16-F10 cells assessed as effect on liver morphology at 2 mg/kg, ip administered every other day for 22 days by H and E staining based assay; assay type: organism-based; settings: in vivo, 528 h, time 22 day
[29] = system: B16-F10; assay: Induction of ROS generation in mouse B16-F10 cells assessed as reduction in GPX1 expression level at 1.25 uM preincubated with rosiglitazone for 24 hrs followed by compound addition for 24 hrs; assay type: functional, cell-based
[30] = system: A-375; assay: Induction of cell cycle arrest in human A-375 cells assessed as reduction in Cdk2 protein level at 0.31 to 1.25 uM after 24 hrs by Western blotting analysis; assay type: functional, cell-based; settings: dose 0.31-1.25 µM
[31] = system: B16-F10; assay: Antiproliferative activity against mouse B16-F10 cells assessed as inhibition of cell growth at 0.04 to 10 uM by MTT assay; assay type: functional, cell-based; settings: dose 0.04-10 µM, time 24-72 hrs, TDE = time-dependent effect
[32] = system: B16-F10; assay: Induction of ROS generation in mouse B16-F10 cells assessed as reduction in SOD2 expression level at 0.31 to 1.25 uM incubated for 24 hrs; assay type: functional, cell-based; settings: dose 0.31-1.25 µM
[33] = system: B16-F10; assay: Induction of ROS generation in mouse B16-F10 cells assessed as reduction in GPX1 expression level at 0.31 to 1.25 uM incubated for 24 hrs; assay type: functional, cell-based; settings: dose 0.31-1.25 µM
[34] = system: B16-F10; assay: Antitumor activity against mouse B16-F10 cells inoculated in mouse assessed as reduction in MMP9 expression at 2 mg/kg, ip administered every other day and measured on day 18 by immunohistochemistry analysis; assay type: functional, organism-based; settings: time 18.0 day
[35] = system: B16-F10; assay: Induction of cell cycle arrest in mouse B16-F10 cells assessed as accumulation of cells at G0/G1 phase incubated for 24 hrs by PI staining based flow cytometry analysis (reference value: 10.93%); assay type: functional
[36] = system: B16-F10; assay: Antitumor activity against mouse B16-F10 cells inoculated in mouse assessed as reduction in tumor metastasis at 2 mg/kg, ip administered every other day and measured on day 18 by H and E staining based assay; assay type: functional, organism-based; settings: time 18.0 day

With CC[N+]1=C(/C=C/C2=C(Cl)C(=C/C=C3\N(CCCCCC(=O)O/C(=N/C4CCCCC4)NC4CCCCC4)c4ccccc4C3(C)C)/CCC2)C(C)(C)c2ccccc21.[Br-] the Activity [1] was “Active”, the inhibition [2] was “inactive” and the Activity [3] was “Active”. For the same molecule, the Activity [4] was “Non-Toxic”, the inhibition [5] was “Active” and the inhibition [6] was “Dose-Dependent Effect”. For the same molecule, the IC50 [7] was 410 nM, the Activity ([7]; time 24-72 hrs) was “Dose-Dependent Effect” and the Activity [8] was 45.5%. The Activity [9] was “Active”, the Activity [10] was “Active” and the Activity [11] was “Active”. The Activity [12] was “Active”, the inhibition [13] was “Dose-Dependent Effect” and the Activity [14] was “Active”. For the same molecule, the Activity [15] was “Active”, the Activity [16] was “Non-Toxic” and the Activity [17] was 13.5%. The Activity [18] was 70%, the inhibition [19] was “Dose-Dependent Effect” and the inhibition [20] was “Active”. The viability at 24 h, 40 µM [21] was 90%, the Activity [22] was “Active” and the inhibition [23] was “Active”. The Drug uptake [24] was “Active”, the Activity [25] was “Active” and the Activity [26] was 70%. The inhibition [27] was “Active”, the Activity [28] was “Non-Toxic” and the Activity [29] was “inactive”. For the same molecule, the Activity [30] was “Active”, the Activity [31] was “Tde” and the Activity [32] was “Active”. The Activity [33] was “Active”, the Activity [34] was “Active” and the Activity [35] was 40.75%. The Activity [36] was “Active”.
